According to patent US20240092772A1, “CRYSTALLINE FORM OF A PIPERAZINYL-THIAZOLE DERIVATIVE” (Idorsia Pharmaceuticals Ltd, priority 2021, published 2024):

Key:
[1] = Gravimetric vapor sorption (GVS), hygroscopicity determination; type: physicochemical; conditions: 25° C.; variation in mass between 40% and 80% RH in first sorption scan; classification in analogy to Ph. Eur. 10.0, section 5.11
Description: Gravimetric Vapor Sorption (GVS) Moisture sorption isotherm was collected on a dynamic vapor sorption analyzer IGASORP HAS-036-080 from Hiden Isochema operated with Isochema HIsorp 2019 software version 4.02.0070. Typically, about 30 mg of a sample is placed in the sample holder and is submitted to a stepwise equilibration at defined relative humidity (RH) setpoints at 25° C. The sample mass is recorded at these setpoints and are used to build the moisture sorption isotherm. The relative humidity setpoints used were 40% to 0% RH followed by 0% to 95% RH in 5% RH intervals. Data shown consist of the moisture sorption isotherm in the range 5% to 90% of the sample submitted to the increasing relative humidity. The variation in mass between 40% relative humidity and 80% relative humidity in the first sorption scan is evaluated for the hygroscopicity determination. The classification is done in analogy to the European Pharmacopeia (Ph. Eur.) 10.0, section 5.11.

[2] = Solid-state stability of crystalline form 3 on isolation/drying (XRPD); type: physicochemical; conditions: isolation by filter centrifugation or drying under reduced pressure; transforms to crystalline form 1
Description: In another experiment 0.04 mL of MeCN is added to 20 mg of COMPOUND (e.g. as obtained from Example 1) in a standard glass HPLC vial, and the suspension in the closed vial is submitted to a temperature variation cycle while being stirred with a magnetic stirring bar. Temperature cycling (repetition of heating 20° C. to 40° C. in 1 hour and cooling 40° C. to 20° C. in 4 hours) and stirring for 25 hours is done in a Polar Bear device (Cambridge reactor design, UK) The obtained solid, when analyzed without drying, is COMPOUND in crystalline form 3.
Form 3 is observed by XRPD when measured still in presence of sufficient MeCN. Isolation by filter centrifugation or isolation and drying under reduced pressure leads to the transformation of crystalline form 3 to crystalline form 1, pointing to the metastable nature of form 3 in absence of sufficient MeCN.

Structure (SMILES) | GVS (hygroscopicity) [1] | Stability of the crystalline form in absence of sufficient MeCN [2]
Cc1ncn(CC(=O)N2CCN(c3sc(C(F)(F)F)nc3-c3cnc(C(F)(F)F)nc3)C[C@H]2CCO)n1 [COMPOUND in crystalline form 1, 1-{(R)-2-(2-Hydroxy-ethyl)-4-[2-trifluoromethyl-4-(2-trifluoromethyl-pyrimidin-5-yl)-thiazol-5-yl]-piperazin-1-yl}-2-(3-methyl-[1,2,4]triazol-1-yl)-ethanone] | Not hygroscopic | –
Cc1ncn(CC(=O)N2CCN(c3sc(C(F)(F)F)nc3-c3cnc(C(F)(F)F)nc3)C[C@H]2CCO)n1 [crystalline form 3, 1-{(R)-2-(2-Hydroxy-ethyl)-4-[2-trifluoromethyl-4-(2-trifluoromethyl-pyrimidin-5-yl)-thiazol-5-yl]-piperazin-1-yl}-2-(3-methyl-[1,2,4]triazol-1-yl)-ethanone] | – | metastable
